Patent US10563272B2, “Compositions comprising Metarhizium fungi and use thereof as a pesticide” (Cotton Research and Development Corporation, priority 2015, dated 2020)

How the values were obtained:
predatory bugs [1] = experiment: Rate trial on conventional cotton, Norwood 2012 (Example 10): predatory bugs; assay type: in vivo, Hemiptera (Nabidae, Lygaeidae, Pentatomidae); details: P>0.05
Procedure: This trial was conducted on commercial conventional cotton crops on a farm at Norwood (29° 28'S, 149° 50′E) near Moree, NSW, from 28 Feb. to 21 Mar. 2012. The cotton used for the trial was at the early squaring stage, when it was attractive to green mirids (Khan et al. 2004).
(§1) The efficacy of the following treatments against green mirids and predatory insects were evaluated: • 1. 250 mL/ha DAT 511 spore in oil (1×10^7 spores/ml); • 2. 500 mL/ha DAT 511 spore in oil (1×10^7 spores/ml); • 3. 1 L/ha DAT 511 spore in oil (1×10^7 spores/ml); • 4. 62.5 mL/ha of Fipronil; and • 5. Unsprayed (negative control).
(§2) The treatment plots were arranged in a randomized complete block design with six replicates per treatment. Each replicated plot measured 40 m wide (40 rows) and 90 m long.
Foliar application of each treatment was made on 28 Feb. (for both green mirids and beneficial insects) and 13 Mar. […]
Pre-treatment counts of adult and nymph green mirids, predatory beetles, predatory bugs, predatory lacewings and spiders were made by visual inspection of whole cotton plants. Both adults and nymphs of beneficial insects were counted. Plants were assessed in randomly selected one-metre lengths of row of each treatment replicate (i.e. 6 m per treatment). […] Data are expressed as numbers of green mirid adults and nymphs counted per metre per treatment.

predatory beetles = experiment: Bollgard II cotton, Auscott-Togo 2012-13, Field 77 (Experiment 1): predatory beetles; assay type: in vivo, Coleoptera (Coccinellidae, Melyridae); details: 62.5 mL/ha
Procedure: (§3) Two separate trials (Experiment 1 in Field 77; Experiment 2 in Field 63) were conducted in Bollgard II cotton crops on a commercial cotton farm at Auscott-Togo near Narrabri, New South Wales from 11 Feb. to 5 Mar. 2013 (Field 77) and 19 Feb. to 6 Mar. 2013 (Field 63). The cotton used for each of the trials was at the late squaring to pod setting and maturation stages which was fairly attractive to green mirids.
as §1, with “In both trials, the” for “The”, “was” for “were”, “fipronil;” for “Fipronil;”
as §2
(§4) Foliar application of each treatment was made on 28 Feb. (for both green mirids and beneficial insects) and 13 Mar. 2012 (for beneficial insects alone) using a ground spray rig fitted with flat fan nozzles to achieve a droplet size of 200 μm. The treatment was applied during the mornings when temperatures were between 20° C. and 28° C. The timing of treatment was based on the IPM Guidelines and recommendations by CottonLogic to use an economic threshold of 0.5 green mirids per metre (Deutscher and Wilson 1999; Khan et al. 2004).
(§5) Pre-treatment counts of green mirid adults and nymphs, predatory beetles, predatory bugs, predatory lacewings and spiders were made by visual inspection of whole cotton plants. Both adults and nymphs of beneficial insects were counted. Plants were assessed in randomly selected one-metre lengths of row of each replicate (i.e. 6 m per treatment). Post-treatment counts were made 3, 7, 14 and 21 days after treatment. Data are expressed as numbers of green mirid adults and nymphs counted per metre for each treatment.

predatory lacewings = experiment: Bollgard II cotton, Auscott-Togo 2012-13, Field 77 (Experiment 1): predatory lacewings; assay type: in vivo, Chrysopa spp., Micromus tasmaniae; details: 62.5 mL/ha
Procedure: as §3
as §1, with “In both trials, the” for “The”, “was” for “were”, “fipronil;” for “Fipronil;”
as §2, §4, §5

spiders [2] = experiment: Bollgard II cotton, Auscott-Togo 2012-13, Field 77 (Experiment 1): spiders; assay type: in vivo, Lycosa spp., Oxyopes spp., Salticidae spp., Araneus spp.; details: 62.5 mL/ha
Procedure: as §3
as §1, with “In both trials, the” for “The”, “was” for “were”, “fipronil;” for “Fipronil;”
as §2, §4, §5

predatory bugs [3] = experiment: Bollgard II cotton, Auscott-Togo 2012-13, Field 63 (Experiment 2): predatory bugs; assay type: in vivo, Hemiptera (Nabidae, Lygaeidae, Pentatomidae); details: 62.5 mL/ha
Procedure: as §3
as §1, with “In both trials, the” for “The”, “was” for “were”, “fipronil;” for “Fipronil;”
as §2, §4, §5

spiders [4] = experiment: Bollgard II cotton, Auscott-Togo 2012-13, Field 63 (Experiment 2): spiders; assay type: in vivo, Lycosa spp., Oxyopes spp., Salticidae spp., Araneus spp.; details: 62.5 mL/ha
Procedure: as §3
as §1, with “In both trials, the” for “The”, “was” for “were”, “fipronil;” for “Fipronil;”
as §2, §4, §5

N#Cc1nn(-c2c(Cl)cc(C(F)(F)F)cc2Cl)c(N)c1[S+]([O-])C(F)(F)F (centres unmarked) [fipronil]
number of predatory bugs versus unsprayed (control) plots (predatory bugs [1]): No significant difference | No. predatory beetles per meter (predatory beetles; 3 DAT): 1.33 ± 0.33 a per meter | No. predatory beetles per meter (predatory beetles; 7 DAT): 1.33 ± 0.33 a per meter | No. predatory beetles per meter (predatory beetles; 14 DAT): 1.00 ± 0.58 a per meter | No. predatory beetles per meter (predatory beetles; 21 DAT): 1.33 ± 0.33 b per meter | No. predatory beetles per meter (predatory beetles; pre-spray counts): 3.68 ± 0.33 a per meter | No. predatory lacewings per meter (predatory lacewings; 3 DAT): 0.00 ± 0.00 a per meter | No. predatory lacewings per meter (predatory lacewings; 7 DAT): 0.00 ± 0.00 a per meter | No. predatory lacewings per meter (predatory lacewings; 14 DAT): 0.33 ± 0.33 a per meter | No. predatory lacewings per meter (predatory lacewings; 21 DAT): 0.33 ± 0.33 a per meter | No. predatory lacewings per meter (predatory lacewings; pre-spray counts): 0.00 ± 0.00 a per meter | No. spiders per meter (spiders [2]; 3 DAT): 5.00 ± 1.73 a per meter | No. spiders per meter (spiders [2]; 7 DAT): 5.33 ± 1.86 a per meter | No. spiders per meter (spiders [2]; 14 DAT): 9.33 ± 0.67a per meter | No. spiders per meter (spiders [2]; 21 DAT): 8.67 ± 0.88 a per meter | No. spiders per meter (spiders [2]; pre-spray counts): 11.67 ± 1.67a per meter | No. predatory bugs per meter (predatory bugs [3]; 3 DAT): 0.00 ± 0.00 a per meter | No. predatory bugs per meter (predatory bugs [3]; 7 DAT): 0.33 ± 0.33 a per meter | No. predatory bugs per meter (predatory bugs [3]; 14 DAT): 0.00 ± 0.00 a per meter | No. predatory bugs per meter (predatory bugs [3]; 21 DAT): 0.00 ± 0.00 a per meter | No. predatory bugs per meter (predatory bugs [3]; pre-spray counts): 0.00 ± 0.00 a per meter | No. spiders per meter (spiders [4]; 3 DAT): 7.33 ± 1.45 a per meter | No. spiders per meter (spiders [4]; 7 DAT): 4.33 ± 0.67a per meter | No. spiders per meter (spiders [4]; 14 DAT): 1.33 ± 0.33a per meter | No. spiders per meter (spiders [4]; 21 DAT): 3.67 ± 0.33 a per meter | No. spiders per meter (spiders [4]; pre-spray counts): 11.67 ± 1.61 a per meter
